Structures can show the parent of a compound that is named as a salt. Where two headings read alike, the source gives them in different places.
Key:
5-HT2B receptor = 5-HT2B receptor (Homo sapiens (Human), UniProt P41595); experiment: FLIPR Ca2+ flux functional assay, agonist activity at 5-HT2B; assay type: cell-based; details: for Emax: HEK293 stably transfected cells, Ca2+ flux
Experimental: (§1) Functional Assays at 5-HT2A, 5-HT2B, and 5-HT1A Receptors. Agonist activity at 5-HT2A, 5-HT2B, and 5-HTIA receptors was determined using a FLIPR Ca^2− flux assay at WuXi AppTec (Hong Kong) Limited according to their standard protocols. Briefly, stably transfected cells expressing the receptor of interest (HEK293 for 5-HT2A and 5-HT2B; CHO cells for 5-HT1A) were grown and plated in a 384-well plate and incubated at 37° C. and 5% CO2 overnight. A solution of 250 mM probenecid in 1 mL FLIPR assay buffer was prepared fresh. This was combined with a fluorescent dye (Fluo-4 Direct™) to make a final assay concentration of 2.5 mM. Compounds were diluted 1:3.16 for 10 points and 750 nL was added to a 384-well compound plate using ECHO along with 30 μL of assay buffer. The fluorescent dye was then added to the assay plate along with assay buffer to a final volume of 40 μL. The cell plate was incubated for 50 min at 37° C.and 5% CO2 and placed into the FLIPR Tetra along with the compound plate. 10 μL of references and compounds were then transferred from the compound plate into the cell plate and the fluorescent signal was read.

5-HT1A receptor = 5-HT1A receptor (Homo sapiens (Human), UniProt P08908); experiment: FLIPR Ca2+ flux functional assay, agonist activity at 5-HT1A; assay type: cell-based; details: for Emax: read-out: 5-HT1A Emax
Experimental: as §1

5-HT2A receptor [1] = molecular target: T1, 5-HT2A receptor (Homo sapiens (Human), UniProt P28223); experiment: FLIPR Ca2+ flux functional assay, agonist activity at 5-HT2A; assay type: cell-based
Experimental: as §1

rat synaptosomes = experiment: Synaptosome 5-HT release assay; assay type: biochemical; details: for EC50: rat synaptosomes preloaded with [3H]5-HT, 10 mins
Experimental: Synaptosome 5-HT Release Assay. Synaptosome release assays were conducted according to modifications of previously described procedures (Partilla et al. (2016). Interrogating the Activity of Ligands at Monoamine Transporters in Rat Brain Synaptosomes. In Neurotransmitter Transporters (pp. 41-52). Springer.). Briefly, synaptosomes were prepared from rat brains. Male
Sprague-Dawley rats were rendered unconscious with CO2 and their brains were immediately removed. The cerebella were discarded and the whole brains (minus striatum) were placed in ice-cold 0.32 M sucrose (10 mL per brain) and gently homogenized by hand. The homogenate of each brain was centrifuged at 1,000×g at 4° C.for 10 mins and the resulting supernatant was diluted with ice-cold 0.32 M sucrose to a total volume of 10 mL to provide the synaptosome solution. […] The incubations were allowed to reach equilibrium for 2 h at 25° C. For the release reactions, 425 μL of preloaded synaptosomes were added to test tubes containing 75 μL of test drugs diluted in KPB containing 1 mg/mL BSA. After 10 mins, the release reaction was stopped using a cell harvester by rapid vacuum filtration over GF/B filter paper presoaked in wash buffer (10 mM Tris-HCl, pH 7.4, 150 mM NaCl) and the filters were washed with additional wash buffer. Filters were dried for 1 h at 60° C.and retained radioactivity was quantified using a MicroBeta 2 liquid scintillation counter. The amount of retained radioactivity was inversely proportional to the extent of release.

5-HT2A receptor [2] = molecular target: T1, 5-HT2A receptor; experiment: 5-HT2A receptor radioligand binding with [3H]ketanserin; details: HEK293 stable cell line, 1 nM [3H]ketanserin, 1 h, 25° C.
[3] = test system: rat forced swim test (FST); experiment: Forced swim test in rats; assay type: in vivo; details: s.c., 23.5-h pre-treatment time
Experimental: Compound 1 is tested for antidepressant-like activity in the rat forced swim test (FST). The compound induces antidepressant-like effects with a 23.5-h pre-treatment time.
Animals. Male Sprague Dawley rats, aged 9-10 weeks, are used in this experiment. Animals are housed in groups of 2 under controlled temperature (22+3°C.) and relative humidity (30-70%) conditions, with 12-hour light/dark cycles, and with ad libitum food and water. This study is carried out in strict accordance with the requirements of the Committee for the Purpose of Control and Supervision of Experiments on Animals (CPCSEA), India. All efforts are made to minimize suffering.
Drugs and Drug Administration. Test compound, saline vehicle, and the positive control desipramine are administered subcutaneously (s.c.), with doses calculated based on the free base. Normal saline is used as the vehicle (or acidified saline in the case of free bases). All compounds are administered at a volume of 5 mL/kg. Test compound and vehicle are administered 0.5 h after the start of the training swim (Swim 1) and 23.5 h before the test swim (Swim 2). […]
Behavioral scoring is conducted by observers who are blind to the treatment groups. Animals are continuously observed during Swim 2 and the total time spent engaging in the following behaviors is recorded: immobile, swimming, and climbing. […]

[4] = HEK293 stably transfected cells, Ca2+ flux

Sequence of 5-HT2B receptor (P41595 whole entry, looked up): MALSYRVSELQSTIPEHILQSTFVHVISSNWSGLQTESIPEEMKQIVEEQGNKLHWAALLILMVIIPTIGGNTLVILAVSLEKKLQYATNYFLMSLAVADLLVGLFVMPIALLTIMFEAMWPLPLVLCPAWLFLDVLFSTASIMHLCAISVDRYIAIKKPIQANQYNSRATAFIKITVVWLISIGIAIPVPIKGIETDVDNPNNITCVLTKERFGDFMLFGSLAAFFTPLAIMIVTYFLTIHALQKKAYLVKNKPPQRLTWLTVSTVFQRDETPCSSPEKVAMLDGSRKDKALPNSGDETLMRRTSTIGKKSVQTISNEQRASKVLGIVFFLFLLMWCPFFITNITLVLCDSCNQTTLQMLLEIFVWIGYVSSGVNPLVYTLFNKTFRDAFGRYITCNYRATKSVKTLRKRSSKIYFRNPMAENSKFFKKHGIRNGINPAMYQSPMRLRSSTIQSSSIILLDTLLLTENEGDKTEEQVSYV

Row | SMILES | Emax (5-HT2B receptor) | Emax (5-HT1A receptor) | Emax (5-HT2A receptor [1]; [4]) | EC50 (rat synaptosomes) | % Release @ Max Dose (10 μM) (rat synaptosomes; rat synaptosomes) | Ki (5-HT2A receptor [2]) | EC50 (5-HT2A receptor [1]; HEK293 stably transfected cells, Ca2+ flux, read-out: 5-HT2A EC50) | EC50 (5-HT2B receptor) | EC50 (5-HT1A receptor) | immobility time relative to vehicle control [3] | EC50 (5-HT2A receptor [1]) | agonist activity at the 5-HT2A receptor (in words) (5-HT2A receptor [1]; Ca2+ flux) | agonist type at the 5-HT2A receptor (in words) (5-HT2A receptor [1]; Ca2+ flux) | 5-HT releaser potency compared to 5-MeO-DMT (in words) (rat synaptosomes; rat synaptosomes)
1 | COc1ccc2[nH]cc(CCN(C)C)c2c1 [Compound 5-MeO-DMT, 5-methoxy-N,N-dimethyltryptamine, reference compound] | 17.6% | 100% | 106% | 3.95 µM | 54.63% |  |  |  |  |  |  |  |  | 
2 | CN(C)CCc1c[nH]c2ccccc12 [DMT, N,N-dimethyltryptamine, reference compound] | 42.8% | 70.2% | 93.4% | 0.0808 µM | 80.77% | 0.416 µM | 0.0222 µM |  |  |  |  |  |  | 
3 | CN(C)CCc1c[nH]c2ccc(OC(F)(F)F)cc12 [Compound 1, N,N-dimethyl-2-(5-(trifluoromethoxy)-1/-indol-3-yl)ethan-1-amine hydrochloride] | 19.6% | 81.8% | 78.9% | 0.192 µM | 58.77% | 0.89 µM |  | 0.762 µM | 6.33 µM | reduces immobility time relative to vehicle control in a dose-dependent manner | 0.127 µM | potent agonist activity | partial agonist rather than a full agonist | much more potent releaser of 5-HT

Reference: patent US20240246911A1, “NOVEL T[…] METHODS OF TREATING MOOD DISORDERS” (GILGAMESH PHARMACEUTICALS INC., priority 2021, published 2024)
